Measured values: ChEMBL document CHEMBL1124435, “Evaluation of glycolamide esters and various other esters of aspirin as true aspirin prodrugs” (J Med Chem, 1989)
≈ marks a conversion by molar mass, not a printed value.

Legend:
[1] = Observed second order rate constant
in vitro [2] = details: human, 10% human plasma
Homo sapiens [3] = organism: Homo sapiens; assay: Percentage of aspirin formed during hydrolysis in 10% human plasma at pH 7.4 at 37 degrees celsius
[4] = Observed pseudo-first order rate constant
[5] = Partition coefficient (logP); details: octanol/water
[6] = (§1) Observed first order rate constant
Homo sapiens [7] = organism: Homo sapiens; assay: Percentage of aspirin formed during hydrolysis in undiluted human plasma at pH 7.4 at 37 degrees celsius
in vitro [8] = details: human, 10% human plasma, pH 7.4
Description: Michaelis-Menten constant(Km) for hydrolysis in 10% human plasma(pH 7.4) at 37 degrees celsius

[9] = as §1; assay type: ADME

Row | K2 [1] [min⁻¹] | half-life (in vitro [2]) [min] | Aspirin formed (Homo sapiens [3]) [%] | K obs [4] [min⁻¹] | logP [5] | solubility (physchem) [µg/mL] | K1 [6] [min⁻¹] | Aspirin formed (Homo sapiens [7]) [%] | Km (in vitro [8]) [µM] | 10E2 K1 [9] [min⁻¹] | SMILES
1 | 0.53 | 1.3 | 0 | 0.53 | 2.88 | 20 (≈ 0.078 mM) |  |  |  |  | CC(=O)Oc1ccccc1C(=O)Oc1ccccc1
2 | 0.145 | 3.3 | 30 | 0.207 | 0.11 | 4230 (≈ 16.5 mM) | 0.0621 | 31 |  |  | CC(=O)Oc1ccccc1C(=O)OC[S+](C)[O-] (configuration not stated)
3 | 0.212 | 3.3 | 0 | 0.212 | 0.99 | 4320 (≈ 13.4 mM) |  |  |  |  | CCOC(=O)CNC(=O)COC(=O)c1ccccc1OC(C)=O
4 | 0.0582 | 7.5 | 37 | 0.0924 | -0.46 |  |  |  | 380 | 3.42 | CC(=O)Oc1ccccc1C(=O)OCC(=O)N(C)CC(N)=O
5 | 0.205 | 3.4 | 0 | 0.205 |  |  |  |  |  |  | CC(=O)Oc1ccccc1C(=O)OCCN(C)C(C)=O
6 | 0.136 | 5.1 | 0 | 0.136 | -0.43 |  |  |  |  |  | CC(=O)Oc1ccccc1C(=O)OCC(=O)NCC(N)=O
7 | 0.28 | 1.8 | 29 | 0.395 | 1.42 | 2430 (≈ 9.63 mM) | 0.115 | 28 |  |  | CC(=O)OCOC(=O)c1ccccc1OC(C)=O
8 | 0.105 | 3.3 | 50 | 0.209 | 0.38 |  | 0.105 | 49 | 196 |  | CC(=O)Oc1ccccc1C(=O)OCC(=O)N(C)C
9 | 0.0094 | 73.7 | 0 | 0.0094 |  |  |  |  |  |  | CC(=O)Oc1ccccc1C(=O)Oc1ccccc1C(=O)O [DIPLOSALSALATE]
10 | 0.465 | 1.5 | 0 | 0.465 | 1.94 | 550 (≈ 2.29 mM) |  |  |  |  | CSCOC(=O)c1ccccc1OC(C)=O
11 | 0.487 | 1.4 | 0 | 0.487 | 2.15 | 20 (≈ 0.0638 mM) |  |  |  |  | CC(=O)Nc1ccc(OC(=O)c2ccccc2OC(C)=O)cc1 [BENORILATE]
12 | 0.214 | 3.2 | 0 | 0.214 | 1.46 | 2810 (≈ 14.5 mM) |  |  |  |  | COC(=O)c1ccccc1OC(C)=O
13 | 0.315 | 2.2 | 0 | 0.315 | 1.67 |  |  |  |  |  | CCOC(=O)COC(=O)c1ccccc1OC(C)=O
14 | 0.34 | 2 | 0 | 0.34 | 1.67 | 960 (≈ 2.85 mM) |  |  |  |  | CCOC(=O)CN(C)C(=O)COC(=O)c1ccccc1OC(C)=O
15 | 0.037 | 15 | 20 | 0.0462 | 2.03 |  | 0.0092 | 21 |  |  | CC(=O)Oc1ccccc1C(=O)OCC(=O)N(C(C)C)C(C)C
16 | 0.723 | 1 | 0 | 0.723 |  | 350 (≈ 1.25 mM) |  |  |  |  | CCCC(=O)OCOC(=O)c1ccccc1OC(C)=O
17 | 0.26 | 2.7 | 0 | 0.26 | 0.9 | 5520 (≈ 20.8 mM) |  |  |  |  | CCNC(=O)COC(=O)c1ccccc1OC(C)=O
18 | 2.49 | 0.26 | 6 | 2.65 |  | > 200000 | 0.159 | 8 | 49 |  | CC(=O)Oc1ccccc1C(=O)OCCN(C)C.Cl
19 | 0.114 | 3.8 | 38 | 0.184 | 0.06 |  | 0.0699 | 40 |  |  | CC(=O)Oc1ccccc1C(=O)OCC(=O)N(C)CCO
20 | 0.0335 | 20.7 | 0 | 0.0335 |  |  |  |  |  |  | CC(=O)Oc1ccccc1C(=O)OCC(=O)N(C1CCCCC1)C1CCCCC1
